In ChEMBL document CHEMBL3286170, “Design, synthesis and antimycobacterial activity evaluation of natural oridonin derivatives” (2014):
≈ marks a conversion by molar mass, not a printed value.

Assays:
Format in all cases: functional
Mycolicibacterium phlei = experiment: Antimycobacterial activity against Mycobacterium phlei ATCC 355 after 1 day by alamar blue assay; details: ATCC 355, 24 h
[1] = tested on: Mycolicibacterium smegmatis; experiment: Antimycobacterial activity against Mycobacterium smegmatis ATCC 19420 after 1 day; details: ATCC 19420, 24 h
Mycobacterium marinum = experiment: Antimycobacterial activity against Mycobacterium marinum ATCC 927 after 7 days; details: ATCC 927, 168 h

SMILES | MIC (Mycolicibacterium phlei) [µg/mL] | MIC [1] [µg/mL] | MIC (Mycobacterium marinum) [µg/mL]
C=C1C(=O)[C@@]23C(=O)O[C@H]4CCC(C)(C)[C@H]5[C@H](O)OC[C@@]45[C@@H]2CC[C@@H]1[C@H]3OC(C)=O | 32 (≈ 79.1 µM) |  | 
C=C1C(=O)[C@]23[C@H](OC(=O)C4CCCCC4)[C@H]1CC[C@H]2[C@@]12CO[C@]3(O)[C@@H](O)[C@@H]1C(C)(C)CC[C@@H]2O | 8 (≈ 16.9 µM) |  | 
C=C1C(=O)[C@]23[C@H](OC(=O)c4ccc(C(F)(F)F)cc4)[C@H]1CC[C@H]2[C@@]12CO[C@]3(O)[C@@H](O)[C@@H]1C(C)(C)CCC2=O | 16 (≈ 29.9 µM) |  | 
C=C1C(=O)[C@]23[C@H](OC(=O)/C=C/c4ccc(F)cc4)[C@H]1CC[C@H]2[C@@]12CO[C@]3(O)[C@@H](O)[C@@H]1C(C)(C)CC[C@@H]2O | 2 (≈ 3.9 µM) | 4 (≈ 7.8 µM) | 8 (≈ 15.6 µM)
C=C1C(=O)[C@@]23C(=O)O[C@H]4CCC(C)(C)[C@H]5C(=O)OC[C@@]45[C@@H]2CC[C@@H]1[C@H]3O | 16 (≈ 44.4 µM) |  | 
C=C1C(=O)[C@]23[C@H](OC(=O)c4ccc(C(F)(F)F)cc4)[C@H]1CC[C@H]2[C@@]12CO[C@]3(O)[C@@H](O)[C@@H]1C(C)(C)CC[C@@H]2O | 16 (≈ 29.8 µM) |  | 
C=C1C(=O)[C@]23[C@H](OC(=O)c4ccc(F)cc4)[C@H]1CC[C@H]2[C@@]12CO[C@]3(O)[C@@H](O)[C@@H]1C(C)(C)CC[C@@H]2O | 32 (≈ 65.8 µM) |  | 
C=C1C(=O)[C@]23[C@H](O)[C@H]1CC[C@H]2[C@@]12CO[C@]3(O)[C@@H](O)[C@@H]1C(C)(C)CCC2=O | 8 (≈ 22.1 µM) |  | 
C=C1C(=O)[C@]23[C@H](OC(=O)c4ccc(C(F)(F)F)cc4)[C@H]1CC[C@H]2[C@@]12CO[C@]3(O)[C@@H](O)[C@@H]1C(C)(C)CC[C@@H]2OC(C)=O | 16 (≈ 27.7 µM) |  | 
C=C1C(=O)[C@]23[C@H](OC(=O)C4CCCCC4)[C@H]1CC[C@H]2[C@@]12CO[C@]3(O)[C@@H](O)[C@@H]1C(C)(C)CC[C@@H]2OC(C)=O | 8 (≈ 15.5 µM) |  | 
C=C1C(=O)[C@@]23C(=O)O[C@H]4CCC(C)(C)[C@H]5[C@H](O)OC[C@@]45[C@@H]2CC[C@@H]1[C@H]3OC(=O)/C=C/c1ccc(F)cc1 | 0.5 (≈ 0.979 µM) | 16 (≈ 31.3 µM) | 16 (≈ 31.3 µM)
CN[C@@H]1[C@H](O[C@H]2[C@H](O[C@H]3[C@H](O)[C@@H](O)[C@H](N=C(N)N)[C@@H](O)[C@@H]3N=C(N)N)O[C@@H](C)[C@]2(O)C=O)O[C@@H](CO)[C@H](O)[C@H]1O [STREPTOMYCIN] | 0.5 (≈ 0.86 µM) | 0.125 (≈ 0.215 µM) | 0.5 (≈ 0.86 µM)
C=C1C(=O)[C@@]23C(=O)O[C@H]4CCC(C)(C)[C@H]5C(=O)OC[C@@]45[C@@H]2CC[C@@H]1[C@H]3OC(=O)/C=C/c1ccccc1 | 0.5 (≈ 1.02 µM) | 4 (≈ 8.15 µM) | 4 (≈ 8.15 µM)
C=C1C(=O)[C@@]23C(=O)O[C@H]4CCC(C)(C)[C@H]5[C@H](O)OC[C@@]45[C@@H]2CC[C@@H]1[C@H]3OC(=O)/C=C/c1ccccc1 | 2 (≈ 4.06 µM) | 16 (≈ 32.5 µM) | 32 (≈ 65 µM)
C=C1C(=O)[C@@]23C(=O)O[C@H]4CCC(C)(C)[C@H]5[C@H](O)OC[C@@]45[C@@H]2CC[C@@H]1[C@H]3OC(=O)c1ccc(C(F)(F)F)cc1 | 8 (≈ 15 µM) | 16 (≈ 29.9 µM) | 16 (≈ 29.9 µM)
C=C1C(=O)[C@@]23C(=O)O[C@H]4CCC(C)(C)[C@H]5C(=O)OC[C@@]45[C@@H]2CC[C@@H]1[C@H]3OC(=O)c1ccc(F)cc1 | 2 (≈ 4.15 µM) | 16 (≈ 33.2 µM) | 32 (≈ 66.3 µM)
C=C1C(=O)[C@@]23C(=O)O[C@H]4CCC(C)(C)[C@H]5C(=O)OC[C@@]45[C@@H]2CC[C@@H]1[C@H]3OC(C)=O | 2 (≈ 4.97 µM) | 64 (≈ 159 µM) | 64 (≈ 159 µM)
C=C1C(=O)[C@]23[C@H](OC(=O)C45CC6CC(CC(C6)C4)C5)[C@H]1CC[C@H]2[C@@]12CO[C@]3(O)[C@@H](O)[C@@H]1C(C)(C)CC[C@@H]2O | 16 (≈ 30.4 µM) |  | 
C=C1C(=O)[C@]23[C@H](OC(=O)Cc4c[nH]c5ccccc45)[C@H]1CC[C@H]2[C@@]12CO[C@]3(O)[C@@H](O)[C@@H]1C(C)(C)CC[C@@H]2O | 32 (≈ 61.3 µM) |  | 
C=C1C(=O)[C@]23[C@H](OC(=O)/C=C/c4ccc(F)cc4)[C@H]1CC[C@H]2[C@@]12CO[C@]3(O)[C@@H](O)[C@@H]1C(C)(C)CCC2=O | 8 (≈ 15.7 µM) | 16 (≈ 31.3 µM) | 64 (≈ 125 µM)
C=C1C(=O)[C@]23[C@H](OC(=O)C4CCCCC4)[C@H]1CC[C@H]2[C@@]12CO[C@]3(O)[C@@H](O)[C@@H]1C(C)(C)CCC2=O | 16 (≈ 33.9 µM) |  | 

More lines, in order of falling MIC (Mycolicibacterium phlei), values ahead:

MIC (Mycolicibacterium phlei) [µg/mL] | MIC [1] [µg/mL] | MIC (Mycobacterium marinum) [µg/mL] | SMILES
32 (≈ 88.3 µM) |  |  | C=C1C(=O)[C@@]23C(=O)O[C@H]4CCC(C)(C)[C@H]5[C@H](O)OC[C@@]45[C@@H]2CC[C@@H]1[C@H]3O
16 (≈ 34.1 µM) |  |  | C=C1C(=O)[C@]23[C@H](OC(=O)c4cccnc4)[C@H]1CC[C@H]2[C@@]12CO[C@]3(O)[C@@H](O)[C@@H]1C(C)(C)CC[C@@H]2O
16 (≈ 43.9 µM) | > 64 | > 64 | C=C1C(=O)[C@]23[C@H](O)[C@H]1CC[C@H]2[C@@]12CO[C@]3(O)[C@@H](O)[C@@H]1C(C)(C)CC[C@@H]2O [ORIDONIN]
8 (≈ 14.4 µM) | 16 (≈ 28.8 µM) | 64 (≈ 115 µM) | C=C1C(=O)[C@]23[C@H](OC(=O)/C=C/c4ccc(F)cc4)[C@H]1CC[C@H]2[C@@]12CO[C@]3(O)[C@@H](O)[C@@H]1C(C)(C)CC[C@@H]2OC(C)=O
4 (≈ 8.5 µM) | 32 (≈ 68 µM) | 32 (≈ 68 µM) | C=C1C(=O)[C@]23[C@H](OC(=O)c4cnccn4)[C@H]1CC[C@H]2[C@@]12CO[C@]3(O)[C@@H](O)[C@@H]1C(C)(C)CC[C@@H]2O
2 (≈ 3.83 µM) | 16 (≈ 30.6 µM) | 32 (≈ 61.2 µM) | C=C1C(=O)[C@@]23C(=O)O[C@H]4CCC(C)(C)[C@H]5[C@H](O)OC[C@@]45[C@@H]2CC[C@@H]1[C@H]3OC(=O)/C=C/c1ccc(OC)cc1
2 (≈ 4.08 µM) | 16 (≈ 32.6 µM) | 16 (≈ 32.6 µM) | C=C1C(=O)[C@]23[C@H](OC(=O)CCCCCCC)[C@H]1CC[C@H]2[C@@]12CO[C@]3(O)[C@@H](O)[C@@H]1C(C)(C)CC[C@@H]2O
1 (≈ 2.02 µM) | 8 (≈ 16.2 µM) | 8 (≈ 16.2 µM) | C=C1C(=O)[C@]23[C@H](OC(=O)/C=C/c4ccccc4)[C@H]1CC[C@H]2[C@@]12CO[C@]3(O)[C@@H](O)[C@@H]1C(C)(C)CC[C@@H]2O
1 (≈ 2.46 µM) | 16 (≈ 39.4 µM) | 32 (≈ 78.7 µM) | C=C1C(=O)[C@]23[C@H](O)[C@H]1CC[C@H]2[C@@]12CO[C@@]3(O)[C@@H](O)[C@@H]1C(C)(C)CC[C@@H]2OC(C)=O [LASIOKAURIN]
1 (≈ 1.8 µM) | 8 (≈ 14.4 µM) | 16 (≈ 28.8 µM) | C=C1C(=O)[C@]23[C@H](OC(=O)/C=C/c4ccc(OC)c(OC)c4)[C@H]1CC[C@H]2[C@@]12CO[C@]3(O)[C@@H](O)[C@@H]1C(C)(C)CC[C@@H]2O
0.5 (≈ 0.983 µM) | 4 (≈ 7.87 µM) | 4 (≈ 7.87 µM) | C=C1C(=O)[C@@]23C(=O)O[C@H]4CCC(C)(C)[C@H]5C(=O)OC[C@@]45[C@@H]2CC[C@@H]1[C@H]3OC(=O)/C=C/c1ccc(F)cc1
0.5 (≈ 0.953 µM) | 4 (≈ 7.62 µM) | 4 (≈ 7.62 µM) | C=C1C(=O)[C@]23[C@H](OC(=O)/C=C/c4ccc(OC)cc4)[C@H]1CC[C@H]2[C@@]12CO[C@]3(O)[C@@H](O)[C@@H]1C(C)(C)CC[C@@H]2O
